From article PMC7139804 (2020)

Columns and labels:
[1] = test system: CPG-ds27 (DNA, hairpin) CGCGAATTCGCGTTTCGCGAATTCGCG; test: G4-CPG affinity chromatography; conditions: 50 mM KCl; washing solution with 10% DMSO, 10% ethanol; oligonucleotide on CPG; errors within ± 2%
[2] = test system: CPG-tel26 (DNA, G4) TTAGGGTTAGGGTTAGGGTTAGGGTT; test: G4-CPG affinity chromatography; conditions: 50 mM KCl; washing solution with 10% DMSO, 10% ethanol; oligonucleotide on CPG; errors within ± 2%
[3] = test system: CPG-cmyc (DNA, G4) TGGGGAGGGTGGGGAGGGTGGGGAAGGTGGGGA; test: G4-CPG affinity chromatography; conditions: 50 mM KCl; washing solution with 10% DMSO, 10% ethanol; oligonucleotide on CPG; errors within ± 2%
[4] = test system: ds27 (DNA, hairpin) CGCGAATTCGCGTTTCGCGAATTCGCG; test: fluorescence titration, independent equivalent-sites fit; conditions: 20 mM KCl, 5 mM KH2PO4, 10% DMSO, pH 7, 20 °C, 2 µM ligand
[5] = test system: tel26 (DNA, G4) TTAGGGTTAGGGTTAGGGTTAGGGTT; test: as above; conditions: 20 mM KCl, 5 mM KH2PO4, 10% DMSO, pH 7, 20 °C, 2 µM ligand
[6] = test system: cmyc (DNA, G4) TGGGGAGGGTGGGGAGGGTGGGGAAGGTGGGGA; test: as above; conditions: 20 mM KCl, 5 mM KH2PO4, 10% DMSO, pH 7, 20 °C, 2 µM ligand
[7] = test system: tel26 (DNA, G4) TTAGGGTTAGGGTTAGGGTTAGGGTT; test: CD melting at 290 nm; conditions: 20 mM KCl, 5 mM KH2PO4; 10% DMSO, pH 7; 2 µM DNA, 12 µM compound (1:6)
[8] = test system: cmyc (DNA, G4) TGGGGAGGGTGGGGAGGGTGGGGAAGGTGGGGA; test: fluorescence titration and Job plot; conditions: 20 mM KCl, 5 mM KH2PO4; 10% DMSO, pH 7, 20 °C; 2 µM ligand, DNA up to 10 µM; no tight binding
[9] = test system: tel26 (DNA, G4) TTAGGGTTAGGGTTAGGGTTAGGGTT; test: fluorescence titration and Job plot; conditions: 20 mM KCl, 5 mM KH2PO4; 10% DMSO, pH 7, 20 °C; 2 µM ligand, DNA up to 10 µM; no tight binding
[10] = test system: ds27 (DNA, hairpin) CGCGAATTCGCGTTTCGCGAATTCGCG; test: fluorescence titration and Job plot; conditions: 20 mM KCl, 5 mM KH2PO4; 10% DMSO, pH 7, 20 °C; 2 µM ligand, DNA up to 10 µM; no tight binding

Structure (SMILES) | Bound Ligand (%) [1] | Bound Ligand (%) [2] | Bound Ligand (%) [3] | further results
CCCNc1cc2c3c(c(NCCCN(C)C)cc4c3c1C(=O)N(CCCN(C)C)C4=O)C(=O)N(CCCN(C)C)C2=O | 46% | 92% | – | –
CN(C)CCCN1C(=O)c2cc(NCCOCCOCCNc3cc4c5c(ccc6c5c3C(=O)N(CCCCCC(=O)O)C6=O)C(=O)N(CCCCCC(=O)O)C4=O)c3c4c(cc(Br)c(c24)C1=O)C(=O)N(CCCN(C)C)C3=O | 29% | 67% | 64% | –
CCCNc1cc2c3c(ccc4c3c1C(=O)N(CCCN(C)C)C4=O)C(=O)N(CCCN(C)C)C2=O | 50% | 85% | 95% | –
CN(C)CCCN1C(=O)c2ccc3c4c(c(NCCCCCCCNc5cc6c7c(ccc8c7c5C(=O)N(CCCCCC(=O)O)C8=O)C(=O)N(CCCCCC(=O)O)C6=O)cc(c24)C1=O)C(=O)N(CCCN(C)C)C3=O | 61% | 77% | – | –
CN(C)CCCNc1cc2c3c(c(NCCOCCOCCNc4cc5c6c(ccc7c6c4C(=O)N(CCCCCC(=O)O)C7=O)C(=O)N(CCCCCC(=O)O)C5=O)cc4c3c1C(=O)N(CCCN(C)C)C4=O)C(=O)N(CCCN(C)C)C2=O | 71% | 90% | 87% | –
CN(C)CCCN1C(=O)c2ccc3c4c(c(NCCOCCO)cc(c24)C1=O)C(=O)N(CCCN(C)C)C3=O | 30% | 99% | 99% | Kb [4]: 1.9 (±0.2) × 10^7 M^−1; Kb [5]: 2.4 (±0.1) × 10^7 M^−1; Kb [6]: 2.6 (±0.2) × 10^7 M^−1; ΔTm [7]: +15 °C
CN(C)CCCN1C(=O)c2cc(NCCOCCOCCNc3cc4c5c(c(Br)cc6c5c3C(=O)N(CCCCCC(=O)O)C6=O)C(=O)N(CCCCCC(=O)O)C4=O)c3c4c(cc(Br)c(c24)C1=O)C(=O)N(CCCN(C)C)C3=O | 38% | 73% | – | –
CN(C)CCCN1C(=O)c2ccc3c4c(c(NCCCCCCCN)cc(c24)C1=O)C(=O)N(CCCN(C)C)C3=O | 48% | 100% | 97% | –
CN(C)CCCN1C(=O)c2ccc3c4c(c(NCCOCCOCCNc5cc6c7c(c(Br)cc8c7c5C(=O)N(CCCCCC(=O)O)C8=O)C(=O)N(CCCCCC(=O)O)C6=O)cc(c24)C1=O)C(=O)N(CCCN(C)C)C3=O | 33% | 68% | 79% | binding [8]: weak; binding [9]: weak; binding [10]: weak
CN(C)CCCN1C(=O)c2cc(NCCCCCCCNc3cc4c5c(ccc6c5c3C(=O)N(CCCCCC(=O)O)C6=O)C(=O)N(CCCCCC(=O)O)C4=O)c3c4c(cc(Br)c(c24)C1=O)C(=O)N(CCCN(C)C)C3=O | 71% | 75% | 79% | –
CN(C)CCCN1C(=O)c2ccc3c4c(c(NCCOCCOCCN)cc(c24)C1=O)C(=O)N(CCCN(C)C)C3=O | 41% | 97% | – | –
CN(C)CCCN1C(=O)c2ccc3c4c(c(NCCOCCOCCNc5cc6c7c(ccc8c7c5C(=O)N(CCCCCC(=O)O)C8=O)C(=O)N(CCCCCC(=O)O)C6=O)cc(c24)C1=O)C(=O)N(CCCN(C)C)C3=O | 34% | 85% | 79% | –
